Measured values: paper PMC11678782, “The Antioxidant and Anti-Inflammatory Activities of the Methanolic Extract, Fractions, and Isolated Compounds from Eriosema montanum Baker f. (Fabaceae)” (Molecules, 2024)
≈ marks a conversion by molar mass, not a printed value. Entries after “also recorded” stand apart in the source; their conditions may differ.

Experiments:
[1] = Ferric reducing antioxidant power (FRAP) assay; conditions: relative to 200 µg/mL gallic acid, 700 nm
Method: (§1) Three in vitro antioxidant assays, namely, 2,2′-azinobis-(3-ethylbenzothiazoline-6-sulfonic acid (ABTS), 2,2′-diphenyl-1-picrylhydrazyl (DPPH), and ferric ion reducing antioxidant power (FRAP), were used to determine the antioxidant activity according to methods previously reported. Ascorbic acid (0 to 200 μg/mL) was used as positive control in these experiments, and Formula (1) below allowed us to evaluate the percentage of radical scavenging capacity. The inhibitory concentration (IC50) values were evaluated by plotting a nonlinear graph of percentage radical scavenging capacity versus logarithm of tested concentrations. Scavenging capacity (%) = [(A0 − A1)/A0] × 100(1) where A0 is absorbance of negative control, and A1 is absorbance of extract with ABTS^•+ radical cation.
The generally used and almost standard method for performing the FRAP test is that developed by Benzie and Strain [15]. Indeed, the antioxidant power is determined in a colorimetric reaction linked to redox in which an intense blue-colored ferroustripyridyltriazine (Fe^2+-TPTZ) complex is obtained via reduction at a low pH of ferrictripyridyltriazine (Fe^3+-TPTZ). The incubation of a quantity of 50 μL of EMME (1.56 to 200 μg/mL) or 200 μg/mL of gallic acid (Merck, Lethabong, South Africa) on a 96-well plate was carried out with 50 μL of 1% potassium ferricyanide (prepared in 0.2 M of sodium phosphate buffer, pH 6.6) for 30 min at 50 °C. Then, 50 μL of 10% trichloroacetic acid (TCA), 40 μL of distilled water, and 10 μL of 0.1% ferric chloride were added, respectively. The absorbance values were recorded on a blank (extract plus sodium phosphate buffer) at 700 nm on a SpectraMax iD3 multi-mode microplate reader (Molecular Devices, San Jose, CA, USA); the FRAP activity was indicated as inhibition percentage of 200 μg/mL of gallic acid.
(§2) The IC50 values were calculated for each biological experiment using the nonlinear regression curve of the % inhibitory activity versus the logarithm (log10) of the various tested concentrations using GraphPad Prism 6.0 software (GraphPad Software, Inc., San Diego, CA, USA). The data are shown as mean ⁱ SEM (standard error of the mean) values, and all biological experiments were conducted in triplicate (n = 3). The statistical analysis was conducted using GraphPad Prism 6.0 software (GraphPad Software, Inc., San Diego, CA, USA). One-way analysis of variance (ANOVA) was used to compare the data across the tested samples and/or controls, and Student–Newman–Keuls or Dunnett’s tests were then performed. A p-value of less than 0.05 indicated a significant difference in the results.

[2] = test system: LPS-stimulated RAW 264.7 cells; assay: NO production inhibition in LPS-stimulated RAW 264.7 cells (Griess); format: cell-based, murine; conditions: for IC50: Mus musculus, RAW264.7, RAW 264.7, 2 h pre-treatment, 500 ng/mL LPS 24 h; for Inhibition of LPS-induced NO production: RAW 264.7, single-concentration test at 100 µg/mL, vs control cells
Method: […] in a humidified environment containing 5% CO2 and 95% air. For NO and ROS production inhibition assays, the cytotoxic effect of tested samples at 100 µg/mL after 24 h of exposure was initially measured on RAW 264.7 cells (10,000 cells per well) using the standard MTT assay. Then, for NO production inhibition assay, RAW 264.7 cells were pre-treated with tested samples at 100 µg/mL for 2 h followed by addition of culture medium containing 500 ng/mL of lipopolysaccharide (LPS) (Merck, Darmstadt, Germany). After 24 h of incubation under standard cell-culture conditions, NO released was measured in cell supernatants using the Griess reagent (Sigma Aldrich, Darmstadt, Germany), and a SpectraMax iD3 multi-mode microplate reader (Molecular Devices, San Jose, CA, USA) was used to capture the absorbance readings at 540 nm. The ability of each tested material to reduce nitric oxide synthesis by LPS-stimulated RAW 264.7 macrophages in comparison to the negative control (cells treated with DMSO at 0.5% and LPS without extract) was used to calculate the percentage of NO production inhibition.
as §2

[3] = ABTS radical scavenging assay; conditions: 5 min, 734 nm
Method: as §1
Specifically, 2.45 mM of potassium persulfate and 7 mM of ABTS solution were dissolved in methanol and combined to create the ABTS^•+ radical cation, which was stored at 25 °C for a minimum of 16 h. At 734 nm, the absorbance of the generated ABTS^•+ was measured using a SpectraMax iD3 multi-mode microplate reader (Molecular Devices, San Jose, CA, USA) and calibrated to 0.70 ± 0.02. After carefully diluting 40 μL of EMME (1 mg/mL) with methanol and adding 160 μL of (ABTS^•+) radical cation, the 96-well microtiter plate was left to sit at 25 °C in the dark for five minutes. Using a SpectraMax iD3 multi-mode microplate reader, the absorbance values were measured at 734 nm against the blank (extract plus methanol without ABTS^•+). A nonlinear curve representing the percentage of ABTS^•+ scavenging capacity vs. a logarithm of tested concentrations was then plotted to determine the inhibitory concentration (IC50) values.
as §2

[4] = DPPH radical scavenging assay; conditions: 30 min, 517 nm
Method: as §1
To be able to determine the DPPH^• scavenging capacity of EMME, we performed a serial dilution of 40 μL of the sample (1 mg/mL) with methanol on a 96-well microtiter plate, with 160 μL of solution of DPPH^• thereafter (25 μg/mL). The incubation at 25 °C in the dark was performed after 30 min, with the absorbance values measured at 517 nm on a SpectraMax iD3 multi-mode microplate against a blank (extract plus methanol without DPPH^•). […]. Methanol with DPPH^• served as the negative control. Using Formula (1), the DPPH scavenging capability was calculated at the measured concentrations above, and as previously enumerated, the IC50 values were also calculated, as indicated in the previously described procedure.
as §2

CCCCCCCCCCCCCCCC [Compound 1, n-hexadecane]
IC50 FRAP [1]: >200 µg/mL
IC50 [2]: > 100 µg/mL
IC50 ABTS [3]: >100 µg/mL
IC50 DPPH [4]: >100 µg/mL

CCCCCCCCCCCCCCCCCCCCCCCO [Compound 3, tricosan-1-ol]
IC50 FRAP [1]: >200 µg/mL
IC50 [2]: > 100 µg/mL
IC50 ABTS [3]: >100 µg/mL
IC50 DPPH [4]: >100 µg/mL

O=c1c2c(O)cc(O)cc2oc2oc3cc(O)ccc3c12 [Compound 4, lupinalbin A]
IC50 FRAP [1]: >200 µg/mL
IC50 [2]: > 100 µg/mL
IC50 ABTS [3]: >100 µg/mL
IC50 DPPH [4]: >100 µg/mL

O=c1c(-c2ccc(O)cc2)coc2cc(O[C@@H]3O[C@H](CO)[C@@H](O)[C@H](O)[C@H]3O)cc(O)c12 [Compound 5, genistin]
IC50 FRAP [1]: >200 µg/mL
IC50 [2]: 66 ± 4.21 µg/mL (≈ 153 µM)
Inhibition of LPS-induced NO production [2]: significantly inhibited
Inhibition of LPS-induced NO production ([2]; listed as Genistin (5)): able to inhibit
Inhibition of LPS-induced NO production ([2]; listed as genistin (5)): moderate activity; also recorded: moderately effective
IC50 ABTS [3]: 91.02 ± 1.33 µg/mL (≈ 211 µM)
IC50 ABTS ([3]; listed as genistin): 99.89 µg/mL (≈ 231 µM)
IC50 DPPH [4]: 99.89 ± 1.26 µg/mL (≈ 231 µM)
IC50 DPPH ([4]; listed as genistin): 91.02 µg/mL (≈ 211 µM)

CO[C@H]1[C@H](O)[C@@H](O)[C@@H](O)[C@H](O)[C@@H]1O [Compound 6, D-pinitol]
IC50 FRAP [1]: >200 µg/mL
IC50 [2]: > 100 µg/mL
IC50 ABTS [3]: >100 µg/mL
IC50 DPPH [4]: >100 µg/mL

CC[C@H](/C=C/[C@@H](C)[C@H]1CC[C@H]2[C@@H]3CC=C4C[C@@H](O[C@@H]5O[C@H](CO)[C@@H](O)[C@H](O)[C@H]5O)CC[C@]4(C)[C@H]3CC[C@]12C)C(C)C [Compound 7, stigmasterol glucoside]
IC50 FRAP [1]: >200 µg/mL
IC50 [2]: > 100 µg/mL
IC50 ABTS [3]: >100 µg/mL
IC50 DPPH [4]: >100 µg/mL
